Key:
LINE1 elements = experiment: LINE1 retrotransposition assay (neo-resistant colonies after reporter plasmid transfection); format: cell-based; details: HeLa cells transfected with reporter plasmid
Description: FIG. 2 depicts a work-flow for a LINE1 retrotransposition assay as described in Moran et al. Cell 1996 87(5):917-27 (shown in box to the left).
Retrotransposition assay was performed according to Moran et al. Cell. 1996 87(5):917-27 (scheme shown to the left). HeLa cells were transfected with the reporter plasmid; appearance of neo-resistant colonies is indicative of retrotransposition events. […] It is accordingly expected that other RT inhibitors will have similar utility.

HeLa cells = experiment: Clonogenicity of HeLa cells; format: cell-based; details: indicated concentrations of stavudine
[1] = tested on: colorectal cancer cells HCT116; experiment: Acquisition of PALA-resistant colonies (CAD gene amplification); format: cell-based, human; details: for number of PALA resistant colonies: HCT116 grown in presence of indicated non-toxic concentrations of RT inhibitor
Source text: Gene amplification can be assessed by measuring the frequency of occurrence of cell variants resistant to N-phosphonoacetyl-L-aspartate (PALA), a small molecule inhibitor of aspartate transcarbamylase of CAD protein essential for UMP biosynthesis. In human cells, PALA resistance is associated almost solely with CAD overexpression due to amplification of the CAD gene. Therefore, this can serve as a quantitative indicator of gene amplification. Usually undetectable in normal cells, gene amplification frequency can be as high as 10-5 in tumor cells. The finding that p53 inactivation and DNA demethylation by decitabine both greatly increase the frequency of gene amplification support the possibility of involvement of retroelements (which are inhibited at the epigenetic level by p53 and DNA methylation) in this process.
Right panel illustrates the data shown in the graph as images of tissue culture plates treated and untreated with RT inhibitors in the presence and in the absence of PALA. Sensitivity of HCT116 cells to RT inhibitors alone were determined using quantitation of adherent cells following 72 hours of incubation in the presence of a range of concentrations of RT inhibitors (curves in the graph with the scale of cell viability shown on the right).

[2] = tested on: Th-MYCN transgenic mice (spontaneous neuroblastomas); experiment: Tumor relapse after chemotherapy in mouse spontaneous neuroblastoma model; format: in vivo
Source text: In particular, 100% of Th-MYCN transgenic mice (strain 129X1/SvJ-Tg(TH-MYCN)41Waw/Nci) homozygous for MYCN transgene develop spontaneous neuroblastomas in their abdomens around 30 days of age. Mice carrying this transgene show many of the features of the human childhood disease including sensitivity to conventional treatments. Indicated treatments were started at the times of first appearance of palpable tumors.

Cc1cn([C@H]2C=C[C@@H](CO)O2)c(=O)[nH]c1=O [stavudine]
concentrations at which stavudine is effective in inhibiting LINE1 retrotransposition (LINE1 elements): above 5 mM | effect on clonogenicity of HeLa cells (HeLa cells): lack of effect | number of PALA resistant colonies [1]: greatly decreased | number of PALA resistant colonies ([1]; listed as STV): dramatically reduces | frequency of gene amplification in vitro ([1]; tumor cells in vitro): greatly reduced | antitumor effect of stavudine alone ([2]; 1.5 mg/ml in drinking water, no chemotherapy): no detectable antitumor effect | extension of average tumor-free survival ([2]; continuous stavudine 1.5 mg/ml in drinking water with cyclophosphamide and topotecan): nearly two-fold | proportion of disease free animals with no relapses detected within >100 days of observation ([2]; continuous stavudine with cyclophosphamide and topotecan): significantly increased

— patent publication US20210353706A1, “INHIBITION OF ENDOGENOUS REVERSE TRANSCRIPTASE AND TARGETING OF CELLS FOR PROPHYLAXIS AND THERAPY OF CANCER AND AGING” (Health Research, Inc., priority 2017, published 2021)
